According to patent US20110165119A1, “TELAPREVIR DOSING REGIMEN” (priority 2008, published 2011):

Experiments:
HCV NS3-4A protease = biological target: T1, HCV NS3-4A protease (Hepatitis C virus genotype 1a, UniProt P27958); test: in vitro potency against HCV NS3-4A protease; format: biochemical; conditions: relative to telaprevir
T1 construct: against the HCV NS3-4A protease

[1] = in vivo; cited from earlier work

T1 sequence (P27958 1027-1657): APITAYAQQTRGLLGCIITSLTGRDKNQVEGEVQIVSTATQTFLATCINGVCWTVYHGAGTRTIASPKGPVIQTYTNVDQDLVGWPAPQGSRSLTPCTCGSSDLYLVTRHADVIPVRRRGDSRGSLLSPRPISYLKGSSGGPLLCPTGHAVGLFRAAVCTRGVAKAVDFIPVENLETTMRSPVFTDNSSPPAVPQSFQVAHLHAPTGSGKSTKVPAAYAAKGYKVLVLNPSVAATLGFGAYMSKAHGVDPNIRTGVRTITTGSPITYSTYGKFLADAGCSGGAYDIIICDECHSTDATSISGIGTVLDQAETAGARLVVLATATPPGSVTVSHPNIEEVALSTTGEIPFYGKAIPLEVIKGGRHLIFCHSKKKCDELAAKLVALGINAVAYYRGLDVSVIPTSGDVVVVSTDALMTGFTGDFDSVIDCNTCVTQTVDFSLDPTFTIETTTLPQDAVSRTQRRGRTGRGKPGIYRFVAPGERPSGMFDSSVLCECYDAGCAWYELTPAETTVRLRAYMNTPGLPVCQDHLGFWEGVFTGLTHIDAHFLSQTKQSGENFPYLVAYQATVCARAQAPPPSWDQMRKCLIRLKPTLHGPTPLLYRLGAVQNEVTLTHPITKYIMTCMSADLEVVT
T1 sequence (P27958 1658-1711): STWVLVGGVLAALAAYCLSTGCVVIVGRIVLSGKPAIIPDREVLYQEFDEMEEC

Compound | times less potent than telaprevir against the HCV NS3-4A protease (HCV NS3-4A protease) | oral bioavailability [1]
CCCC(NC(=O)C1C2CCCC2CN1C(=O)C(NC(=O)C(NC(=O)c1cnccn1)C1CCCCC1)C(C)(C)C)C(=O)C(=O)NC1CC1 (single isomer, unassigned) [R-diastereisomer] | about 30 times | –
CCC[C@H](NC(=O)[C@@H]1[C@H]2CCC[C@H]2CN1C(=O)[C@@H](NC(=O)[C@@H](NC(=O)c1cnccn1)C1CCCCC1)C(C)(C)C)C(=O)C(=O)NC1CC1 (single isomer, unassigned) [Telaprevir] | – | orally bioavailable
